Test results reported in US10807952B2 (Achillion Pharmaceuticals, Inc., priority 2015, dated 2020).
pIC50: −log10 of the molar value.

These molecules were tested against Human Factor D (Homo sapiens (Human), UniProt P00746) (assay: Human Factor D assay (Z-L-Lys-SBzl / DTNB, absorbance at 405 nm)). Details: Table 4; Human Factor D 80 nM, assay of Example 13.
Assay type: biochemical
Summary of the method: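 Human serum-purified Factor D (80 nM final) was preincubated with compound for 5 min at room temperature in 50 mM Tris, 1M NaCl, pH 7.5. IC50 came from nonlinear regression of rate versus compound concentration.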

Human Factor D, sequence (P00746 26-253): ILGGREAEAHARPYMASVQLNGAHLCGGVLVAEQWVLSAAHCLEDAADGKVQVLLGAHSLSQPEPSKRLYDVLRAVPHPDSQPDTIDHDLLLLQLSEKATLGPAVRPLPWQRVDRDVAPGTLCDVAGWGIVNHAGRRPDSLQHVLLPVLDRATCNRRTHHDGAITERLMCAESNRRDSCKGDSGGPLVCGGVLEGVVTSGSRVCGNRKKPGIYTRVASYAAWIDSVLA

**Q.** With `NC(=O)c1nn(CC(=O)N2C[C@H](F)C[C@H]2C(=O)Nc2cccc(-c3ccc4c(c3)C(=O)NC4)c2F)c2ccccc12` [Compound 91, 1-(2-((2S,4R)-4-fluoro-2-((2-fluoro-3-(3-oxoisoindolin-5-yl)phenyl)carbamoyl)pyrrolidin-1-yl)-2-oxoethyl)-1H-indazole-3-carboxamide] as the molecule, how does the pIC50 read?
**A.** > 6.00

**Q.** `NC(=O)c1nn(CC(=O)N2C[C@H](F)C[C@H]2C(=O)Nc2cccc(-c3ccc4oc(=O)[nH]c4c3)c2F)c2ccccc12` [Compound 92, 1-(2-((2S,4R)-4-fluoro-2-((2-fluoro-3-(2-oxo-2,3-dihydrobenzo[d]oxazol-5-yl)phenyl)carbamoyl)pyrrolidin-1-yl)-2-oxoethyl)-1H-indazole-3-carboxamide] was tested. Which pIC50 did it give?
**A.** > 6.00

**Q.** How did the pIC50 turn out when `NC(=O)c1nn(CC(=O)N2C[C@H](F)C[C@H]2C(=O)Nc2cccc(-c3ccc4c(c3)C(=O)CCC4)c2F)c2ccccc12` [Compound 93, 1-(2-((2S,4R)-4-fluoro-2-((2-fluoro-3-(8-oxo-5,6,7,8-tetrahydronaphthalen-2-yl)phenyl)carbamoyl)pyrrolidin-1-yl)-2-oxoethyl)-1H-indazole-3-carboxamide] was run?
**A.** > 6.00

**Q.** How did the pIC50 turn out when `CC(=O)c1nn(CC(=O)N2C[C@H](F)C[C@H]2C(=O)Nc2cccc(-c3cc(C(=O)NC#N)ccc3Cl)c2F)c2ccccc12` [Compound 95, (2S,4R)-1-(2-(3-acetyl-1H-indazol-1-yl)acetyl)-N-(2′-chloro-5′-(cyanocarbamoyl)-2-fluoro-[1,1′-biphenyl]-3-yl)-4-fluoropyrrolidine-2-carboxamide] was run?
**A.** > 6.00

**Q.** How did the pIC50 turn out when `CC(=O)c1nn(CC(=O)N2C[C@H](F)C[C@H]2C(=O)Nc2cccc(-c3ccc4c(c3)NC(=O)NC4)c2F)c2ccccc12` [Compound 96, (2S,4R)-1-(2-(3-acetyl-1H-indazol-1-yl)acetyl)-4-fluoro-N-(2-fluoro-3-(2-oxo-1,2,3,4-tetrahydroquinazolin-7-yl)phenyl)pyrrolidine-2-carboxamide] was run?
**A.** > 6.00

**Q.** `CC(=O)c1nn(CC(=O)N2C[C@H](F)C[C@H]2C(=O)Nc2cccc(-c3nc(Cl)c4nc[nH]c4n3)c2F)c2ccccc12` [Compound 99, (2S,4R)-1-(2-(3-acetyl-1H-indazol-1-yl)acetyl)-N-(3-(6-chloro-9H-purin-2-yl)-2-fluorophenyl)-4-fluoropyrrolidine-2-carboxamide] was tested. Which pIC50 did it give?
**A.** > 6.00

**Q.** How did the pIC50 turn out when `CC(=O)c1nn(CC(=O)N2C[C@H](F)C[C@H]2C(=O)Nc2cccc(-c3ccc4sc(N)nc4c3)c2F)c2ccccc12` [Compound 100, (2S,4R)-1-(2-(3-acetyl-1H-indazol-1-yl)acetyl)-N-(3-(2-aminobenzo[d]thiazol-5-yl)-2-fluorophenyl)-4-fluoropyrrolidine-2-carboxamide] was run?
**A.** > 6.00

**Q.** With `CC(=O)c1nn(CC(=O)N2C[C@H](F)C[C@H]2C(=O)Nc2cccc(-c3ccc4nc(N)sc4c3)c2F)c2ccccc12` [Compound 101, (2S,4R)-1-(2-(3-acetyl-1H-indazol-1-yl)acetyl)-N-(3-(2-aminobenzo[d]thiazol-6-yl)-2-fluorophenyl)-4-fluoropyrrolidine-2-carboxamide] as the molecule, how does the pIC50 read?
**A.** > 6.00

**Q.** `CC(=O)c1nn(CC(=O)N2C[C@H](F)C[C@H]2C(=O)Nc2cccc(-c3ccc4[nH]c(=O)[nH]c(=O)c4c3)c2F)c2ccccc12` [Compound 102, (2S,4R)-1-(2-(3-acetyl-1H-indazol-1-yl)acetyl)-N-(3-(2,4-dioxo-1,2,3,4-tetrahydroquinazolin-6-yl)-2-fluorophenyl)-4-fluoropyrrolidine-2-carboxamide] was tested. Which pIC50 did it give?
**A.** > 6.00

**Q.** With `CC(=O)c1nn(CC(=O)N2C[C@H](F)C[C@H]2C(=O)Nc2cccc(-c3ccc4sc(O)nc4c3)c2F)c2ccccc12` [Compound 103, (2S,4R)-1-(2-(3-acetyl-1H-indazol-1-yl)acetyl)-4-fluoro-N-(2-fluoro-3-(2-hydroxybenzo[d]thiazol-5-yl)phenyl)pyrrolidine-2-carboxamide] as the molecule, how does the pIC50 read?
**A.** > 6.00

**Q.** How did the pIC50 turn out when `CC(=O)c1nn(CC(=O)N2C[C@H](F)C[C@H]2C(=O)Nc2cccc(/C=C/c3nc4c(Cl)cccc4[nH]3)c2F)c2ccccc12` [Compound 104, (2S,4R)-1-(2-(3-acetyl-1H-indazol-1-yl)acetyl)-N-(3-((E)-2-(4-chloro-1H-benzo[d]imidazol-2-yl)vinyl)-2-fluorophenyl)-4-fluoropyrrolidine-2-carboxamide] was run?
**A.** > 6.00

**Q.** `Cc1cccc(NC(=O)[C@@H]2CCC(F)CCN2C(=O)Cn2cc(C(N)=O)c3cc(C4=CCCCC4)ccc32)n1` (stereo partly drawn) [Compound 106, 5-(cyclohex-1-en-1-yl)-1-(2-((2S)-5-fluoro-2-((6-methylpyridin-2-yl)carbamoyl)azepan-1-yl)-2-oxoethyl)-1H-indole-3-carboxamide] was tested. Which pIC50 did it give?
**A.** < 5.00

**Q.** With `Cc1c(Br)c(C(N)=O)nn1CC(=O)N1C[C@H](F)C[C@H]1C(=O)Nc1cccc(Br)n1` [Compound 107, 4-Bromo-1-(2-((2S,4R)-2-((6-bromopyridin-2-yl)carbamoyl)-4-fluoropyrrolidin-1-yl)-2-oxoethyl)-5-methyl-1H-pyrazole-3-carboxamide] as the molecule, how does the pIC50 read?
**A.** 5.00 to 6.00
